Experimental data published in patent US6610853B1, “N-(phenylsulfonyl)picolinamide derivatives, process for producing the same, and herbicide” (Kureha Kagaku Kogyo K.K., priority 2000, dated 2003).

Columns and labels:
Assay in all cases: Test on herbicidal activity by foliar application
Assay type in all cases: in vivo
Settings in all cases: foliar spray, 1 kg/ha, plants at 1-2 leaf stage in pots, evaluated 14 days after spraying
Matricaria chamomilla = test system: Matricaria chamomilla
Protocol: (§1) Test on Herbicidal Activity by Foliar Application: Herbicidal solutions of each test compounds, which were prepared by dissolving at predetermined concentrations such a wettable powder of the test compound as that described in the above Formulation Example, were sprayed at dosages of 1 kg/ha over foliar parts of Amaranthus retroflexus, Bidens pilosa, Sinapis arvensis, Stellaria media, Solanum nigrum, Abutilon theophrasti, Convolvulus arvensis, Matricaria chamomilla, Galium aparine, Veronica hederaefolia, and Setaria viridis (each test plant is 1-2 leaf stage) which were grown in pots. 14 days latter after spraying, its herbicidal activity was evaluated in accordance with the below-described system. Herbicidal Activity 1: less than 30% inhibition 2: 30% or more-50% inhibition 3: 50% or more-70% inhibition 4: 70% or more-90% inhibition 5: 90% or more inhibition

Amaranthus retroflexus = test system: Amaranthus retroflexus
Protocol: as §1

Sinapis arvensis = test system: Sinapis arvensis
Protocol: as §1

Convolvulus arvensis = test system: Convolvulus arvensis
Protocol: as §1

Galium aparine = test system: Galium aparine
Protocol: as §1

Setaria viridis = test system: Setaria viridis
Protocol: as §1

Abutilon theophrasti = test system: Abutilon theophrasti
Protocol: as §1

Solanum nigrum = test system: Solanum nigrum
Protocol: as §1

Stellaria media = test system: Stellaria media
Protocol: as §1

Veronica hederaefolia = test system: Veronica hederaefolia
Protocol: as §1

Bidens pilosa = test system: Bidens pilosa
Protocol: as §1

Q: With COc1cc(Cl)nc(C(=O)NS(=O)(=O)c2ccccc2Cl)c1 [Compound I-705, N-[(2-Chlorophenyl)sulfonyl]-6-chloro-4-methoxypyridine-2-carboxamide] as the compound, how does the “Herbicidal activity, Matricaria chamomilla” value (Matricaria chamomilla) read?
A: 4 (70% or more-90% inhibition)

Q: And the “Herbicidal activity, Amaranthus retroflexus” value (Amaranthus retroflexus)?
A: 4 (70% or more-90% inhibition)

Q: What about the “Herbicidal activity, Sinapis arvensis” value (Sinapis arvensis) of the same compound?
A: 5 (90% or more inhibition)

Q: And the “Herbicidal activity, Convolvulus arvensis” value (Convolvulus arvensis)?
A: 5 (90% or more inhibition)

Q: And the “Herbicidal activity, Galium aparine” value (Galium aparine)?
A: 4 (70% or more-90% inhibition)

Q: And the “Herbicidal activity, Setaria viridis” value (Setaria viridis)?
A: 3 (50% or more-70% inhibition)

Q: What about the “Herbicidal activity, Abutilon theophrasti” value (Abutilon theophrasti) of the same compound?
A: 2 (30% or more-50% inhibition)

Q: What about the “Herbicidal activity, Solanum nigrum” value (Solanum nigrum) of the same compound?
A: 4 (70% or more-90% inhibition)

Q: And the “Herbicidal activity, Stellaria media” value (Stellaria media)?
A: 5 (90% or more inhibition)

Q: What about the “Herbicidal activity, Veronica hederaefolia” value (Veronica hederaefolia) of the same compound?
A: 4 (70% or more-90% inhibition)

Q: And the “Herbicidal activity, Bidens pilosa” value (Bidens pilosa)?
A: 5 (90% or more inhibition)

Q: Which results are given for O=C(NS(=O)(=O)c1ccccc1OC(F)(F)F)c1cccc(Cl)n1 [Compound I-771, N-[[2-Trifluoromethoxyphenyl]sulfonyl]-6-chloro-2-pyridinecarboxamide]?
A: Herbicidal activity, Matricaria chamomilla (Matricaria chamomilla): 5 (90% or more inhibition); Herbicidal activity, Amaranthus retroflexus (Amaranthus retroflexus): 5 (90% or more inhibition); Herbicidal activity, Sinapis arvensis (Sinapis arvensis): 5 (90% or more inhibition); Herbicidal activity, Convolvulus arvensis (Convolvulus arvensis): 4 (70% or more-90% inhibition); Herbicidal activity, Galium aparine (Galium aparine): 5 (90% or more inhibition); Herbicidal activity, Setaria viridis (Setaria viridis): 1 (less than 30% inhibition); Herbicidal activity, Abutilon theophrasti (Abutilon theophrasti): 5 (90% or more inhibition); Herbicidal activity, Solanum nigrum (Solanum nigrum): 5 (90% or more inhibition); Herbicidal activity, Stellaria media (Stellaria media): 5 (90% or more inhibition); Herbicidal activity, Veronica hederaefolia (Veronica hederaefolia): 5 (90% or more inhibition); Herbicidal activity, Bidens pilosa (Bidens pilosa): 5 (90% or more inhibition)

Q: Which “Herbicidal activity, Matricaria chamomilla” value (Matricaria chamomilla) does the source give for COc1ccc(C(=O)NS(=O)(=O)c2ccccc2OC(F)(F)F)nc1 [Compound I-774, N-[(2-Trifluoromethoxyphenyl)sulfonyl]-5-methoxy-2-pyridinecarboxamide] here?
A: 5 (90% or more inhibition)

Q: What about the “Herbicidal activity, Amaranthus retroflexus” value (Amaranthus retroflexus) of the same compound?
A: 4 (70% or more-90% inhibition)

Q: What about the “Herbicidal activity, Sinapis arvensis” value (Sinapis arvensis) of the same compound?
A: 5 (90% or more inhibition)

Q: And the “Herbicidal activity, Convolvulus arvensis” value (Convolvulus arvensis)?
A: 4 (70% or more-90% inhibition)

Q: And the “Herbicidal activity, Galium aparine” value (Galium aparine)?
A: 4 (70% or more-90% inhibition)

Q: What about the “Herbicidal activity, Setaria viridis” value (Setaria viridis) of the same compound?
A: 5 (90% or more inhibition)

Q: And the “Herbicidal activity, Abutilon theophrasti” value (Abutilon theophrasti)?
A: 5 (90% or more inhibition)

Q: And the “Herbicidal activity, Solanum nigrum” value (Solanum nigrum)?
A: 5 (90% or more inhibition)

Q: And the “Herbicidal activity, Stellaria media” value (Stellaria media)?
A: 5 (90% or more inhibition)

Q: What about the “Herbicidal activity, Veronica hederaefolia” value (Veronica hederaefolia) of the same compound?
A: 5 (90% or more inhibition)

Q: And the “Herbicidal activity, Bidens pilosa” value (Bidens pilosa)?
A: 5 (90% or more inhibition)

Q: COc1ccc(C(=O)NS(=O)(=O)c2ccccc2OC(F)(F)F)nc1[N+](=O)[O-] [Compound I-778] was tested. Which “Herbicidal activity, Matricaria chamomilla” value (Matricaria chamomilla) did it give?
A: 5 (90% or more inhibition)

Q: And the “Herbicidal activity, Amaranthus retroflexus” value (Amaranthus retroflexus)?
A: 4 (70% or more-90% inhibition)

Q: What about the “Herbicidal activity, Sinapis arvensis” value (Sinapis arvensis) of the same compound?
A: 5 (90% or more inhibition)

Q: And the “Herbicidal activity, Convolvulus arvensis” value (Convolvulus arvensis)?
A: 5 (90% or more inhibition)

Q: And the “Herbicidal activity, Galium aparine” value (Galium aparine)?
A: 4 (70% or more-90% inhibition)

Q: What about the “Herbicidal activity, Setaria viridis” value (Setaria viridis) of the same compound?
A: 3 (50% or more-70% inhibition)

Q: And the “Herbicidal activity, Abutilon theophrasti” value (Abutilon theophrasti)?
A: 5 (90% or more inhibition)

Q: And the “Herbicidal activity, Solanum nigrum” value (Solanum nigrum)?
A: 5 (90% or more inhibition)

Q: And the “Herbicidal activity, Stellaria media” value (Stellaria media)?
A: 3 (50% or more-70% inhibition)

Q: What about the “Herbicidal activity, Veronica hederaefolia” value (Veronica hederaefolia) of the same compound?
A: 2 (30% or more-50% inhibition)

Q: What about the “Herbicidal activity, Bidens pilosa” value (Bidens pilosa) of the same compound?
A: 5 (90% or more inhibition)

Q: Which “Herbicidal activity, Matricaria chamomilla” value (Matricaria chamomilla) does the source give for COc1cc(Cl)nc(C(=O)NS(=O)(=O)c2ccccc2OC(F)(F)F)c1 [Compound I-795, N-[(2-Trifluoromethoxyphenyl)sulfonyl]-6-chloro-4-methoxy-2-pyridinecarboxamide] here?
A: 5 (90% or more inhibition)

Q: And the “Herbicidal activity, Amaranthus retroflexus” value (Amaranthus retroflexus)?
A: 4 (70% or more-90% inhibition)

Q: What about the “Herbicidal activity, Sinapis arvensis” value (Sinapis arvensis) of the same compound?
A: 5 (90% or more inhibition)

Q: What about the “Herbicidal activity, Convolvulus arvensis” value (Convolvulus arvensis) of the same compound?
A: 3 (50% or more-70% inhibition)

Q: What about the “Herbicidal activity, Galium aparine” value (Galium aparine) of the same compound?
A: 5 (90% or more inhibition)

Q: And the “Herbicidal activity, Setaria viridis” value (Setaria viridis)?
A: 2 (30% or more-50% inhibition)

Q: And the “Herbicidal activity, Abutilon theophrasti” value (Abutilon theophrasti)?
A: 4 (70% or more-90% inhibition)

Q: And the “Herbicidal activity, Solanum nigrum” value (Solanum nigrum)?
A: 5 (90% or more inhibition)

Q: And the “Herbicidal activity, Stellaria media” value (Stellaria media)?
A: 5 (90% or more inhibition)

Q: And the “Herbicidal activity, Veronica hederaefolia” value (Veronica hederaefolia)?
A: 5 (90% or more inhibition)

Q: And the “Herbicidal activity, Bidens pilosa” value (Bidens pilosa)?
A: 5 (90% or more inhibition)

Q: How did the “Herbicidal activity, Matricaria chamomilla” value (Matricaria chamomilla) turn out when COc1ccc(C(=O)NS(=O)(=O)c2ccccc2OC(F)(F)F)nc1Cl [Compound I-798, N-[(2-Trifluoromethoxyphenyl)sulfonyl]-6-chloro-5-methoxy-2-pyridinecarboxamide] was run?
A: 5 (90% or more inhibition)

Q: And the “Herbicidal activity, Amaranthus retroflexus” value (Amaranthus retroflexus)?
A: 5 (90% or more inhibition)

Q: And the “Herbicidal activity, Sinapis arvensis” value (Sinapis arvensis)?
A: 5 (90% or more inhibition)

Q: What about the “Herbicidal activity, Convolvulus arvensis” value (Convolvulus arvensis) of the same compound?
A: 4 (70% or more-90% inhibition)

Q: And the “Herbicidal activity, Galium aparine” value (Galium aparine)?
A: 5 (90% or more inhibition)

Q: And the “Herbicidal activity, Setaria viridis” value (Setaria viridis)?
A: 3 (50% or more-70% inhibition)

Q: What about the “Herbicidal activity, Abutilon theophrasti” value (Abutilon theophrasti) of the same compound?
A: 5 (90% or more inhibition)

Q: What about the “Herbicidal activity, Solanum nigrum” value (Solanum nigrum) of the same compound?
A: 5 (90% or more inhibition)

Q: What about the “Herbicidal activity, Stellaria media” value (Stellaria media) of the same compound?
A: 5 (90% or more inhibition)

Q: And the “Herbicidal activity, Veronica hederaefolia” value (Veronica hederaefolia)?
A: 5 (90% or more inhibition)

Q: What about the “Herbicidal activity, Bidens pilosa” value (Bidens pilosa) of the same compound?
A: 5 (90% or more inhibition)

Q: For COc1ccc(C(=O)NS(=O)(=O)c2ccccc2OC(F)(F)F)nc1OC [Compound I-799, N-[(2-Trifluoromethoxyphenyl)sulfonyl]-5,6-dimethoxy-2-pyridinecarboxamide], which “Herbicidal activity, Matricaria chamomilla” value (Matricaria chamomilla) is on record?
A: 5 (90% or more inhibition)

Q: And the “Herbicidal activity, Amaranthus retroflexus” value (Amaranthus retroflexus)?
A: 3 (50% or more-70% inhibition)

Q: What about the “Herbicidal activity, Sinapis arvensis” value (Sinapis arvensis) of the same compound?
A: 5 (90% or more inhibition)

Q: And the “Herbicidal activity, Convolvulus arvensis” value (Convolvulus arvensis)?
A: 3 (50% or more-70% inhibition)

Q: And the “Herbicidal activity, Galium aparine” value (Galium aparine)?
A: 4 (70% or more-90% inhibition)

Q: What about the “Herbicidal activity, Setaria viridis” value (Setaria viridis) of the same compound?
A: 3 (50% or more-70% inhibition)

Q: What about the “Herbicidal activity, Abutilon theophrasti” value (Abutilon theophrasti) of the same compound?
A: 5 (90% or more inhibition)

Q: And the “Herbicidal activity, Solanum nigrum” value (Solanum nigrum)?
A: 4 (70% or more-90% inhibition)

Q: And the “Herbicidal activity, Stellaria media” value (Stellaria media)?
A: 5 (90% or more inhibition)

Q: And the “Herbicidal activity, Veronica hederaefolia” value (Veronica hederaefolia)?
A: 4 (70% or more-90% inhibition)

Q: And the “Herbicidal activity, Bidens pilosa” value (Bidens pilosa)?
A: 4 (70% or more-90% inhibition)

Q: For COc1ccc(C(=O)NS(=O)(=O)c2ccccc2OC(F)(F)F)nc1Br [Compound I-805, N-[[2-Trifluoromethoxyphenyl]sulfonyl]-6-bromo-5-methoxy-2-pyridinecarboxamide], which “Herbicidal activity, Matricaria chamomilla” value (Matricaria chamomilla) is on record?
A: 5 (90% or more inhibition)

Q: And the “Herbicidal activity, Amaranthus retroflexus” value (Amaranthus retroflexus)?
A: 5 (90% or more inhibition)

Q: And the “Herbicidal activity, Sinapis arvensis” value (Sinapis arvensis)?
A: 5 (90% or more inhibition)

Q: What about the “Herbicidal activity, Convolvulus arvensis” value (Convolvulus arvensis) of the same compound?
A: 5 (90% or more inhibition)

Q: What about the “Herbicidal activity, Galium aparine” value (Galium aparine) of the same compound?
A: 5 (90% or more inhibition)

Q: And the “Herbicidal activity, Setaria viridis” value (Setaria viridis)?
A: 4 (70% or more-90% inhibition)

Q: And the “Herbicidal activity, Abutilon theophrasti” value (Abutilon theophrasti)?
A: 5 (90% or more inhibition)

Q: And the “Herbicidal activity, Solanum nigrum” value (Solanum nigrum)?
A: 5 (90% or more inhibition)

Q: What about the “Herbicidal activity, Stellaria media” value (Stellaria media) of the same compound?
A: 5 (90% or more inhibition)

Q: And the “Herbicidal activity, Veronica hederaefolia” value (Veronica hederaefolia)?
A: 4 (70% or more-90% inhibition)

Q: What about the “Herbicidal activity, Bidens pilosa” value (Bidens pilosa) of the same compound?
A: 5 (90% or more inhibition)

Q: Which results are given for COc1cc(Cl)nc(C(=O)NS(=O)(=O)c2ccccc2S(C)(=O)=O)c1 [Compound I-818, 6-Chloro-4-methoxy-N-[[2-(methylsulfonyl)-phenyl]sulfonyl]-2-pyridinecarboxamide]?
A: Herbicidal activity, Matricaria chamomilla (Matricaria chamomilla): 5 (90% or more inhibition); Herbicidal activity, Amaranthus retroflexus (Amaranthus retroflexus): 5 (90% or more inhibition); Herbicidal activity, Sinapis arvensis (Sinapis arvensis): 5 (90% or more inhibition); Herbicidal activity, Convolvulus arvensis (Convolvulus arvensis): 5 (90% or more inhibition); Herbicidal activity, Galium aparine (Galium aparine): 5 (90% or more inhibition); Herbicidal activity, Setaria viridis (Setaria viridis): 5 (90% or more inhibition); Herbicidal activity, Abutilon theophrasti (Abutilon theophrasti): 4 (70% or more-90% inhibition); Herbicidal activity, Solanum nigrum (Solanum nigrum): 5 (90% or more inhibition); Herbicidal activity, Stellaria media (Stellaria media): 5 (90% or more inhibition); Herbicidal activity, Veronica hederaefolia (Veronica hederaefolia): 4 (70% or more-90% inhibition); Herbicidal activity, Bidens pilosa (Bidens pilosa): 5 (90% or more inhibition)
